According to patent US20070213305A1, “N-alkyl-N-aryl-thienopyrimidin-4-amines and analogs as activators of caspases and inducers of apoptosis and the use thereof” (Cytovia, Inc., priority 2005, published 2007):
Where a name gives a salt, the structure may show the parent alone. Read-outs that look alike come from different tables or passages of the source.

Tests used:
[1] = test system: human lung cancer cell line H1299; assay: Caspase cascade activation (DEVD-R110 fluorogenic substrate) in H1299 cells; assay type: cell-based; conditions: read-out: Caspase Activation Potency EC50 (nM) (24 h) H1299
Description: (§1) Human breast cancer cell line T-47D, human lung cancer cell line H1299 and human hepatocellular carcinoma cell line SNU398 were grown according to media component mixtures designated by American Type Culture Collection+10% FCS (Invitrogen Corporation), in a 5% CO2-95% humidity incubator at 37° C. T-47D and H1299 cells were maintained at a cell density between 50 and 80% confluency at a cell density of 0.1 to 0.6×10^6 cells/mL. Cells were harvested at 600×g and resuspended at 0.65×10^6 cells/mL into appropriate media+10% FCS. An aliquot of 22.5 μL of cells was added to a well of a 384-well microtiter plate containing 2.5 μL of a 10% DMSO in RPMI-1640 media solution containing 0.16 to 100 μM of N-(4-methoxyphenyl)-N, 2-dimethylthieno[3,2-d]pyrimidin-4-amine or other test compound (0.016 to 10 μM final). An aliquot of 22.5 μL of cells was added to a well of a 384-well microtiter plate containing 2.5 μL of a 10 % DMSO in RPMI-1640 media solution without test compound as the control sample. The samples were mixed by agitation and then incubated at 37° C. for 24 h or 48 h in a 5% CO2-95% humidity incubator. After incubation, the samples were removed from the incubator and 25 μL of a solution containing 14 μM of N-(Ac-DEVD)-N′-ethoxycarbonyl-R110 (SEQ ID No.:1) fluorogenic substrate (Cytovia, Inc.; WO99/18856), 20% sucrose (Sigma), 20 mM DTT (Sigma), 200 mM NaCI (Sigma), 40 mM Na PIPES buffer pH 7.2 (Sigma), and 500 μg/mL lysolecithin (Calbiochem) was added. The samples were mixed by agitation and incubated at room temperature. Using a fluorescent plate reader (Model SPECTRAfluor Plus, Tecan), an initial reading (T=0) was made approximately 1-2 min after addition of the substrate solution, employing excitation at 485 nm and emission at 530 nm, to determine the background fluorescence of the control sample. After the 3 h incubation, the samples were read for fluorescence as above (T=3 h).
(§2) The Relative Fluorescence Unit values (RFU) were used to calculate the sample readings as follows: RFU(T=3h)-Control RFU(T=0)=Net RFU(T=3h)
(§3) The activity of caspase cascade activation was determined by the ratio of the net RFU value for N-(4-methoxyphenyl)-N,2-dimethylthieno[3,2-d]pyrimidin-4-amine or other test compound to that of control samples. The EC50 (nM) was determined by a sigmoidal dose-response calculation (Prism 3.0, GraphPad Software Inc.).

[2] = test system: human breast cancer cell line T-47D; assay: Caspase cascade activation (DEVD-R110 fluorogenic substrate) in T-47D cells; assay type: cell-based; conditions: 24 h, read-out: Caspase Activation Potency EC50 (nM) (24 h) T-47D
Description: as §1, §2, §3

[3] = test system: human hepatocellular carcinoma cell line SNU398; assay: Caspase cascade activation (DEVD-R110 fluorogenic substrate) in SNU398 cells; assay type: cell-based; conditions: SNU398, 24 h, read-out: Caspase Activation Potency EC50 (nM) (24 h) SNU398
Description: as §1, §2, §3
Several compounds were also tested in other cancer cells lines (48 h assay), including human hepatocellular carcinoma cell line SNU398, human colon carcinoma cell line […], human B cell lymphoblastoid cell line Ramos, human Burkitt's lymphoma cell line Namalwa, and cervical cancer cell line HeLa, and the data are summarized in Table II.

MDAMB435 cells = assay: Inhibition of cell proliferation (GI50, CellTiter-Glo) in MDAMB435 cells; assay type: cell-based; conditions: Homo sapiens, MDA-MB-435; MDAMB435, 48 h incubation; read-out: GI50 in Cancer Cells GI50 (nM) MDAMB435
Description: (§4) T-47D, HT29, H1299, MX-1 and MDAMB435 cells were grown and harvested as in Example 29. An aliquot of 90 μL of cells (4.4×10^4 cells/mL) was added to a well of a 96-well microtiter plate containing 5 μL of a 10% DMSO in RPMI-1640 media solution containing 10 nM to 100 μM of N-(4-methoxyphenyl)-N,2-dimethylthieno[2,3-d]pyrimidin-4-amine (1 nM to 10 μM final) or related compounds. An aliquot of […] of cells was added to a well of a 96-well microtiter plate containing 5 μL of a 10% DMSO in RPMI-1640 media solution without compound as the control sample for maximal cell proliferation (LMax). The samples were mixed by agitation and then incubated at 37° C. for 48 h in a 5% CO2-95% humidity incubator. After incubation, the samples were removed from the incubator and 25 μL of CellTiter-Glo™ reagent (Promega) was added. The samples were mixed by agitation and incubated at room temperature for 10-15 min. Plates were then read using a luminescent plate reader (Model SPECTRAfluor Plus, Tecan) to give Ltest values.
(§5) The samples were mixed by agitation and then incubated at 37° C. for 0.5 h in a 5% CO2-95% humidity incubator. After incubation, the samples were removed from the incubator and 25 μL of CellTiter-Glo™ reagent (Promega) was added. The samples were mixed by agitation and incubated at […] room temperature in a 5% CO2-95% humidity incubator. […] was read as above, (Lstart) defining luminescence for initial cell number used as baseline in GI50 determinations. ps Calculation:
(§6) GI50 (dose for 50% inhibition of cell proliferation) is the concentration where [(LTest-LStart)/(LMax-LStart)]=0.5.

HT29 cells = assay: Inhibition of cell proliferation (GI50, CellTiter-Glo) in HT29 cells; assay type: cell-based; conditions: Homo sapiens, HT-29; HT29, 48 h incubation; read-out: GI50 in Cancer Cells GI50 (nM) HT29
Description: as §4, §5, §6

H1299 cells = assay: Inhibition of cell proliferation (GI50, CellTiter-Glo) in H1299 cells; assay type: cell-based, human; conditions: Homo sapiens, NCI-H1299; H1299, 48 h incubation; read-out: GI50 in Cancer Cells GI50 (nM) H1299
Description: as §4, §5, §6

T-47D cells = assay: Inhibition of cell proliferation (GI50, CellTiter-Glo) in T-47D cells; assay type: cell-based, human; conditions: Homo sapiens; T47D, 48 h incubation; read-out: GI50 in Cancer Cells GI50 (nM) T47D
Description: as §4, §5, §6

MX-1 cells = assay: Inhibition of cell proliferation (GI50, CellTiter-Glo) in MX-1 cells; assay type: cell-based; conditions: Homo sapiens; MX1, 48 h incubation; read-out: GI50 in Cancer Cells GI50 (nM) MX1
Description: as §4, §5, §6

SMILES | EC50 ([1]; Homo sapiens, NCI-H1299, 24 h) [nM] | EC50 ([2]; Homo sapiens, T47D) [nM] | also measured
COc1ccc(Nc2ncnc3scc(C)c23)cc1 [Example 11, N-(4-Methoxyphenyl)-5-methylthieno[2,3-d]pyrimidin-4-amine] | > 10000 | > 10000 | 
Cc1cc(N(C)c2ncnc3ccsc23)no1 [Example 17, N-Methyl-N-(5-methylisoxazol-3-yl)thieno[3,2-d]pyrimidin-4-amine] | > 10000 | > 10000 | 
COc1ccc(N(C)c2ncnc3sc(C)c(C)c23)cc1 [Example 23, N-(4-Methoxyphenyl)-N,5,6-trimethylthieno[2,3-d]pyrimidin-4-amine] | 51 | 19 | EC50 ([3]; Homo sapiens, SNU-398): 30 nM
COc1ccc(OC)c(N(C)c2nc(C)nc3ccsc23)c1 [Example 16, N-(2,5-Dimethoxyphenyl)-N,2-dimethylthieno[3,2-d]pyrimidin-4-amine] | > 10000 | > 10000 | 
COc1ccc(N(C)c2ncnc3sccc23)cc1 [Example 9, N-(4-Methoxyphenyl)-N-methylthieno[2,3-d]pynimidin-4-amine] |  |  | EC50 [3]: 57 nM; EC50 ([1]; H1299, 24 h): 41 nM; EC50 [2]: 19 nM
COc1ccc(N(C)c2ncnc3ccsc23)cc1OC [Example 26, N-(3,4-Dimethoxyphenyl)-N-methylthieno[3,2-d]pyrimidin-4-amine] | 2620 | 1630 | 
COc1ccc(N(C)c2nc(SC)nc3ccsc23)cc1 [Example 20, N-(4-Methoxyphenyl)-N-methyl-2-(methylthio)thieno[3,2-d]pyrimidin-4-amine hydrochloride] | 28 | 36 | EC50 ([3]; Homo sapiens, SNU-398): 81 nM
COc1ccc(N(C)c2nc(C)nc3c(C)csc23)cc1 [Example 3, N-(4-Methoxyphenyl)-N,2,7-trimethylthieno[3,2-d]pyrimidin-4-amine] | 281 | 233 | 
COc1ccccc1N(C)c1ncnc2ccsc12 [Example 25, N-(2-Methoxyphenyl)-N-methylthieno[3,2-d]pyrimidin-4-amine] | > 10000 | > 10000 | 
COc1ccc(N(C)c2ncnc3cc(-c4cccnc4)sc23)cc1 [Example 8, N-(4-Methoxyphenyl)-N-methyl-6-(pyridin-3-yl)thieno[3,2-d]pyrimidin-4-amine] | > 10000 | > 10000 | 
COc1ccc(N(C)c2nc(-c3ccccc3)nc3ccsc23)cc1 [Example 19, N-(4-Methoxyphenyl)-N-methyl-2-phenylthieno[3,2-d]pyri idin-4-amine hydrochloride] |  |  | EC50 ([1]; H1299, 24 h): 615 nM; EC50 [2]: 337 nM
COc1cc(OC)cc(N(C)c2ncnc3ccsc23)c1 [Example 28, N-(3,5-dimethoxyphenyl)-N-methylthieno[3,2-d]pyrimidin-4-amine] | > 10000 | > 10000 | 
COc1cccc(N(C)c2ncnc3ccsc23)c1 [Example 27, N-(3-methoxyphenyl)-N-methylthieno[3,2-d]pyrimidin-4-amine] | > 10000 | > 10000 | 
COc1ccc(N(C)c2ncnc3c(C)csc23)cc1 [Example 10, N-(4-Methoxyphenyl)-N,7-dimethylthieno[3,2-d]pyrimidin-4-amine] | 525 | 518 | 
COc1ccc(OC)c(N(C)c2ncnc3ccsc23)c1 [Example 21, N-(2,5 -Dimethoxyphenyl)-N-methylthieno[3,2-d]pyrimidin-4-amin] | 4940 | 2500 | 
COc1ccc(Nc2nc(C)nc3scc(C)c23)cc1 [Example 13, N-(4-Methoxyphenyl)-2,5-dimethylthieno[2,3-d]pyrimidin-4-amine hydrochloride] | > 10000 | > 10000 | 
COc1ccc(Nc2ncnc3ccsc23)cc1 [Example 14, N-(4-Methoxyphenyl)-thieno[3,2-d]pyrimidin-4-amine hydrochloride] | > 10000 | > 10000 | 
COc1ccc(N(C)c2ncnc3scc(C)c23)cc1 [Example 12, N-(4-Methoxyphenyl)-N,5-dimethylthieno[2,3-d]pyrimidin-4-amine] | 19 | 12 | EC50 ([3]; Homo sapiens, SNU-398): 15 nM
COc1ccc(N(C)c2ncnc3sc(C)cc23)cc1 [Example 18, N-(4-Methoxy-phenyl)-N,6-dimethylthieno[2,3-d]pyrimidin-4-amine hydrochloride] | 184 | 125 | 
COC(=O)c1ccc(N(C)c2ncnc3ccsc23)cc1 [Example 22, N-(4-Methoxycarbonylphenyl)-N-methylthieno[3,2-d]pyrimidin-4-amine hydrochloride] | 327 | 185 | 
COc1ccc(N(C)c2ncnc3cc(I)sc23)cc1 [Example 7, 6-Iodo-N-(4-methoxyphenyl)-N-methylthieno[3,2-d]pyrimidin-4-amine] | > 10000 | > 10000 | 
COc1ccc(N(C)c2nc(C)nc3sccc23)cc1 [Example 2, N-(4-Methoxyphenyl)-N,2-dimethylthieno[2,3-d]pyrimidin-4-amine] |  |  | EC50 ([1]; H1299, 24 h): 15 nM; GI50 (MDAMB435 cells): 2 nM; GI50 (HT29 cells): 26 nM; EC50 [2]: 9 nM; GI50 (H1299 cells): 9 nM; GI50 (T-47D cells): 5 nM; GI50 (MX-1 cells): 5 nM
